# Test: Bioavailability of amisulpride administered by the oral route
# Settings: in vivo, conventional amisulpride, of the order of
compound,measurement,value
"CCN1CCCC1CNC(=O)c1cc(S(=O)(=O)CC)c(N)cc1OC (stereo not shown) [amisulpride, 4-amino-N-[(1-ethylpyrrolidin-2-yl)methyl]-5-(ethylsulphonyl)-2-methoxybenzamide]",bioavailability,35 to 45%

# — US6069165A, “Pharmaceutical compositions containing amisulpride and their therapeutic applications” (Synthelabo, priority 1996, dated 2000)
